Tests used:
[1] = Foam height, high shear (Waring blender) in deionized water; format: physicochemical; conditions: for Foam volume (ml) 5 min / Foam volume (ml) Initial: 0.05 wt % in deionized water; for Foam volume (ml) 5 min: after 5 min; for Foam volume (ml) Initial: blended High 30 s
Procedure: The surface foam volume and persistence of the amine oxides with linear and branched hydrophobes from Examples 43 and 44 were compared. A 0.05 wt % (actives basis) solution of the test surfactant was made in deionized water. 250 ml of the test solution was added the beaker of a Waring blender, capped, and then blended on High for 30 seconds and immediately transferred to a 1 L graduated cylinder. The total volume of foam plus liquid, as well as the liquid layer alone was recorded. The foam and liquid volumes were recorded again after 5 minutes.

[2] = Draves Wetting Test (ASTM D2281-68), wet-out time; format: physicochemical; conditions: 0.05 wt % actives in DI water, average of 3
Procedure: The surface wetting ability of the amine oxides with linear and branched hydrophobes from Examples 43 to 45 were compared using the Draves Wetting Test (ASTM D2281-68). A 0.05 wt % (actives basis) solution of amine oxide in deionized (DI) water was used to determine the Draves wet-out time (WOT) in seconds. 0.75 g of surfactant was dispersed in 1,500 ml of DI water. The wet-out time (WOT) in seconds is recorded in Table 7 (average of 3 measurements). LAO is Lauramine oxide (linear hydrophobe), Sigma catalog number 40236.

[3] = Stain removal in cold water, swatch brightness, simple laundry liquid; conditions: 0.05% active additive, compared to LAO
Procedure: Amine oxides with linear and branched hydrophobes were compared in a screen for stain removal in cold water. Simple laundry liquid formulations were made that included only surfactants and builder.
Standard stain swatches were purchased from Testfabrics, Inc. (West Pittston, Pa.). […] The swatches were pre-cut into 2 inch squares. The test formulation was diluted with DI water to 0.06% total surfactant to make the wash solution. Additives were added at a final concentration of 0.05% active in the wash solution. Stained fabric swatches were added to the wash solution, washed and rinsed at 20° C., and air-dried. The average swatch brightness (L*) for each treatment, and standard deviation, are reported for 3 replicates.

[4] = Salt thickening: viscosity of SLS/SLES/amine oxide formulation vs NaCl content; format: physicochemical; conditions: 1.4% amine oxide, 4.3% SLS, 4.3% SLES, shear rate 3/s
Procedure: The viscosity (cP; shear rate 3/s) of a simple formulation was measured as the salt concentration varied from 0 to 5 wt %.

[5] = Foaming in diluted commercial laundry liquid (Persil Original), Waring blender; format: physicochemical; conditions: for Difference: initial minus 5 min
Procedure: The surface foam volume and foam persistence of solutions of the amine oxides with linear and branched hydrophobes from Examples 25 and 26 were compared. A commercial laundry liquid was diluted in deionized water according to the dosing instructions; 4.2 ml/L Persil Original. The diluted detergent was supplemented with 0%, 2%, 5% (based on wt laundry liquid) of LAO or Branched C12 AO,(2,4-diethyl-N,N-dimethyloctan-1-amine oxide, Example 66), and the solutions mixed briefly and used immediately. 250 ml of each test solution was added the beaker of a Waring blender, capped, and then blended on High for 30 seconds and immediately transferred to a 1 L graduated cylinder. The total volume of foam plus liquid, as well as the liquid layer alone was recorded. The foam and liquid volumes were recorded again after 5 minutes. All tests were performed in triplicate.

zein protein = tested on: zein protein; design: species or system corn; conditions: 1% surfactant solution, 30 C, 30 min, triplicate
Procedure: For the test, 0.0750 g of zein protein is transferred into a 1.5 mL centrifuge tube. To this 1.5 mL of 1% surfactant solution is added, mixed, and placed in a 30 C incubator with mild stirring for 30 minutes. After 30 minutes has elapsed, the tube is centrifuged for 30 min at 3600 rpm. The solution is filtered through a pre-weighed 8 micron filter paper, and then dried overnight in a 50° C. oven. The insoluble zein residue is then weighed and the wt % Zein dissolved is calculated using the equation below. Each solution is analyzed in triplicate. The Zein score is normalized to a standard included in each set of tests, in this case LAE10; (% zein dissolved=(total zein added−total zein after drying÷Total zein added)×100).

Row | Compound | Zein score - normalized to LAE10 (zein protein) | Foam volume (ml) 5 min [1] | Foam volume (ml) Initial [1] | Wet out time [2] | Viscosity ([4]; NaCl 0.5 wt %) | Viscosity ([4]; NaCl 1.0 wt %) | Difference ([5]; Persil + 2% amine oxide) | Difference ([5]; Persil + 5% amine oxide) | further results
1 | 4-ethyl-N,N-2-trimethyloctan-1-amine oxide [Example 43] |  | 0 mL | 267 mL | >300 s |  |  |  |  | % decrease ([1]; foam volume, initial to 5 min): 100%
2 | CCCCC(CC)CC(C)C[N+](C)(C)[O-] (centres unmarked) [Example 43, 4-ethyl-N,N-2-trimethyloctan-1-amine oxide] |  |  |  |  | 7 cP | 36 cP |  |  | Foam in the wash solution [3]: very little foam; Viscosity ([4]; NaCl 4.0 wt %): 670 cP
3 | CCCCCCCCCCCC[N+](C)(C)[O-] [LAO, N,N-dimethyl laurylamine oxide, reference compound] |  | 500 mL |  | 33 s | 2 cP | 11 cP | 54 mL | 6 mL | 

More lines, main results first:

Row | Zein score - normalized to LAE10 (zein protein) | Compound | Foam volume (ml) 5 min [1] | Foam volume (ml) Initial [1] | Wet out time [2] | Viscosity ([4]; NaCl 0.5 wt %) | Viscosity ([4]; NaCl 1.0 wt %) | Difference ([5]; Persil + 2% amine oxide) | Difference ([5]; Persil + 5% amine oxide) | further results
4 | 0.018 | CCCCC(CC)CC(CC)C[N+](C)(C)[O-] (centres unmarked) [Example 44, 2,4-diethyl-N,N-dimethyloctan-1-amine oxide] | 0 mL | 370 mL | >300 s |  |  | 257 mL | 280 mL | Initial foam volume ([5]; Persil Original 4.2 ml/L + 2% amine oxide (on wt laundry liquid)): 560 mL
5 | 0.586 | Alkylpolyglucoside [APG] |  |  |  |  |  |  |  | 
6 | 4.670 | Linear alkylbenzene sulfonate [LABS] |  |  |  |  |  |  |  | 

Source: patent publication US10961180B2, “Branched trialkyl amine oxides” (Eastman Chemical Company, priority 2018, dated 2021)
